# Measured values as given in PMC8287944, “5-Fluorouracil blocks quorum-sensing of biofilm-embedded methicillin-resistant Staphylococcus aureus in mice” (Nucleic Acids Research, 2021).
# Experiments:
# [1] = system: SE 1457 wild type; experiment: AI-2 activity of SE 1457 wild type; assay type: cell-based, Staphylococcus epidermidis; conditions: 3 h, increasing 5-FU concentrations
# Method: To confirm that the phenotype could be restored, 1 μM synthetic (S)-4,5-dihydroxy-2,3-pentanedione (DPD) (Biosynth Carbosynth, Staad, Switzerland) was used. After 3 h under static conditions at 37°C, the supernatant was analysed for AI-2 activity with V. harveyi (MM32).
# Supplementary Figure 4 | Bioactivity of 5-FU against Staphylococcus epidermidis (SE). a) Quorum-sensing-associated AI-2 activity of SE 1457 grown for 3 h in the presence of different 5-FU concentrations (note log scale). b) Reversing effect of 1 µM DPD on the AI-2-reducing action of 5-FU (dashed line indicates AI-2 baseline of SE 1457 without 5-FU). Values represent 3 biological replicates expressed as mean ± SD (*, p < 0.05; **, p < 0.01).
# [2] = system: MRSA ATCC 43300; experiment: Biofilm formation (Crystal Violet); assay type: cell-based, Staphylococcus aureus; conditions: 0.1 μM 5-FU, 24 h
# Method: To quantify the formation of bacterial biofilms, bacteria were grown for 24 h in the presence of potential inhibitors in 96-well polystyrene plates. The plates were then washed three times with distilled water. Remaining cells were stained with 0.1% Crystal Violet solution (5% methanol, 5% isopropanol) and further washed to remove excess dye. Crystal Violet was redissolved in 20% acetic acid solution and the absorbance of the solution was measured at 600 nm.
# (§1) Figure 4. Bioactivity of 5-FU against MRSA ATCC 43300. (A) Quorum sensing-associated AI-2 activity of MRSA 43300 grown for 3 h with different 5-FU concentrations. (B) Effect of different 5-FU concentrations on MRSA 43300 growth. (C) Interference with biofilm formation. (D) Effect on adherent MRSA 43300. Data points represent three biological replicates expressed as mean ± SD (**P < 0.01; ***P < 0.001; ****P < 0.0001).
# [3] = system: MRSA ATCC 43300; experiment: Murine tissue cage (foreign-body) infection model, prophylaxis; assay type: in vivo, Staphylococcus aureus; conditions: C57BL/6 mice, prophylactic treatment
# Method: To evaluate the prophylactic efficacy of 5-FU against MRSA infection, we used our murine model of foreign-body infection, which closely mimics human implant-associated infections. This model of foreign-body infection ([26],[27]) was established with the approval of the Kantonale Veterinaeramt Basel-Stadt, Switzerland (permit no. 1710). Experiments were conducted according to the regulations of Swiss veterinary law and performed in the animal house of the Department of Biomedicine, University Hospital Basel, Switzerland. Healthy wild-type female C57BL/6 mice at 13 weeks of age (JanvierLabs, France) kept under specific pathogen-free conditions (biosafety level 2) were anesthetized, followed by the subcutaneous implantation of sterile cylindrical Teflon tissue cages (8.5 × 1 × 30 mm; volume: 1.9 ml) with 130 regularly spaced holes (Angst + Pfister AG, Zurich, Switzerland). They were housed in a 12 hr light/dark cycle (light from 7 am to 7 pm) in a temperature-controlled room (24°C) with free access to regular mice chow and water. Mice were randomly assigned to experimental groups, which were not involved in previous procedures. The mice were randomized into groups, which were treated as follows: saline (untreated growth control; n = 7), saline with 5.2844 mg/kg DPD (n = 4), 50 mg/kg daptomycin (DAP) (Novartis, Basel, Switzerland) (n = 11), 10 mg/kg 5-FU with and without 50 mg/kg DAP (each n = 8), 40 mg/kg 5-FU with or without 50 mg/kg DAP (n = 16 and n = 13, respectively), 40 mg/kg 5-FU with 1 μM DPD (n = 6), or 40 mg/kg 5-FU with 50 mg/kg DAP and 5.2844 mg/kg DPD (n = 8). DAP was given intraperitoneally immediately before implantation, and 5-FU and DPD was given immediately after implantation directly into the lumen of the cage. Afterwards, the cages were infected with 965 CFU of MRSA 43300. At 2 days post-infection, tissue cage fluid was collected, and the planktonic bacterial load was evaluated by plating on blood agar plates. In additional, mice were sacrificed and the tissue cages were explanted under aseptic conditions. The explanted tissue cages were washed twice with phosphate-buffered saline followed by 30 s vortexing, sonication for 3 min at 130 W and another 30 s vortexing to release adherent bacteria from the biofilm. Quantification of adherent bacteria was performed by plating appropriated dilutions on blood agar plates. To determine the prevention rate, the presence of any re-growth of MRSA was examined by further incubation of the cage in tryptic soy broth (TSB) for 48 h at 37°C. MRSA re-growth represents therapy failure, and the prevention rate was defined as the percentage of cages without growth in each treatment group.
# Figure 6. Prophylactic effect of 5-FU against MRSA ATCC 43300 in a murine tissue cage infection model. Read-outs were obtained two days after infection with 965 CFU/cage and treatment with saline, saline with 1 μM AI-2, 50 mg/kg daptomycin (DAP), 10 mg/kg 5-FU with or without 50 mg/kg DAP, 40 mg/kg 5-FU with or without 50 mg/kg DAP or 40 mg/kg 5-FU with 50 mg/kg DAP and 5.2844 mg/kg DPD, as indicated below the panels. (A) Effect on planktonic MRSA 43300 two days post-infection. (B) Effect on adherent MRSA after explantation and sonication. (C) Prevention rate. Values in (A) and (B) are median ± IQR and those in (C) are % ([…]; **P < 0.001; ****P < 0.0001; ns, not significant). TEXT PRINTED IN THE PICTURE: (C) DAP: prevention rate (%): 18 | (C) DAP + 5-FU (10): prevention rate (%): 75 | (C) DAP + 5-FU (40): prevention rate (%): 94 | (C) DAP + 5-FU (40) + DPD: prevention rate (%): 12.5 DOUBTS OF THE COPYIST ABOUT THIS PICTURE: Panel C, DAP, prevention rate: 18 or 16 (small print) / Panel C, DAP + 5-FU (10), prevention rate: 75 or 76 (small print) / Panel C: which treatment belongs to each bar was read from the small +/- grid under the plot, so the column alignment is not fully certain
# [4] = system: MRSA ATCC 43300; experiment: Adherent MRSA quantification (CFU plating); assay type: cell-based, Staphylococcus aureus; conditions: 0.1 μM 5-FU, 24 h
# Method: To quantify the amount of adherent bacteria, 2 – 3 × 10^5 CFU/ml MRSA were grown for 24 h in the presence of different 5-FU concentrations. After incubation under static conditions at 37°C, the plate was washed twice with PBS. Adherent bacteria were removed with 100 μl PBS and appropriate dilutions were plated on Mueller-Hinton agar (Becton Dickinson AG, Allschwil, Switzerland) plates overnight at 37°C. Three independent experiments were performed, each performed in triplicate, and the mean values were calculated. Dimethyl sulfoxide (DMSO) was used as a control.
# as §1
smiles,measurement,setting,value
O=c1[nH]cc(F)c(=O)[nH]1 [5-Fluorouracil],AI-2 activity of SE 1457,[1],reduced AI-2 activity dose-dependently
same,Biofilm formation of MRSA,[2],significantly decreased biofilm formation
same,Effect on biofilm / adherent MRSA,[3]; explanted cages 2 days post-infection,neither 5-FU nor DAP alone was sufficient to contain the infection
same,Effect on planktonic MRSA infection,[3]; tissue cage fluid 2 days post-infection,failed to clear planktonic MRSA infections
same,Number of adherent MRSA,[4],reduced the number of adherent MRSA
